Source: paper PMC6418270, “The pharmacological and functional characterization of the serotonergic system in Anopheles gambiae and Aedes aegypti: influences on flight and blood-feeding behavior” (Scientific Reports, 2019)
Structures can show the parent of a compound that is named as a salt.

Key:
AGAP002229 [1] = target: T1, AGAP002229 (Anopheles gambiae, UniProt A7UR33); test: Fluo-4 calcium assay in CRE-luc2P HEK-293 cells expressing AGAP002229; format: cell-based; settings: for Receptor activation by agonist / Response to biogenic amines: AGAP002229; for Response to biogenic amines: 10^−4 M; for Ability to inhibit activity in a dose-response manner: antagonist test, receptor not given, taken as both 5-HT2 cell lines
Method: A week post-transfection, selective pressure was applied with […] of G418 antibiotic to generate stable lines.
1 × 10^6 cells per well were seeded into a 96-well black all-clear bottom plate and incubated overnight in 10% FBS/90% DMEM at 37 °C with an atmosphere of 5% CO2. The following day, 2X Fluo-4 Direct calcium dye (Molecular Devices LLC, San Jose, CA) was added to each well and incubated in the same conditions for 45 minutes before the assay was completed. At this time, serial dilutions of the test compounds were prepared in a 96-well clear flat bottom plate. […] Fluorescence measurements continued to be recorded for a total of 120 seconds at 2-second intervals. When testing antagonists, cells were treated with the compound prior to determination of fluorescence levels.
(§1) Luminescence and calcium assay data were normalized and fitted with a non-linear least squares regression to generate dose-response curves, EC50 and IC50 values. Unpaired t-tests or Dunnett’s multiple comparisons test were performed accordingly to compare EC50 or IC50 values. Locomotion was measured based on the distance required for flight recovery. Data were compared with the Kruskal-Wallis and Dunnett’s multiple comparison tests after the Kolmogorov-Smirnov normality test was conducted. In the blood-feeding experiments, the percentage of blood-fed mosquitoes was calculated for each treatment group. For each biological replicate, the treatment groups were normalized with respect to the untreated group. Dunnett’s multiple comparison tests were utilized to determine statistical difference between normalized data. Size of bloodmeals were compared with an unpaired t-test or Mann-Whitney test after normality was evaluated with the Kolmogorov-Smirnov test. All analyses were performed utilizing GraphPad Prism version 7.00 for Mac OS X, GraphPad Software, La Jolla California USA, www.graphpad.com.

Ae. aegypti [2] = test: Blood-feeding assay after ingestion of compound in 10% sucrose; format: in vivo, Aedes aegypti
Method: Sucrose solution was withheld from newly-emerged mosquitoes for two days. On the third day, the mosquitoes were presented with a cotton ball saturated with 400 μL of a 10% sucrose solution laced with compound or the respective control for five days. The cotton ball was exchanged every other day with a fresh one. Seven to ten-day old female mosquitoes were treated with compound or appropriate control through microinjection post cold-anesthetization or ingestion. Two mL of human O^+ blood (BioChemed Services, Winchester, VA) was utilized to cover the concave surface of an inverted baby food jar. Hog intestine sealed the opening to simulate the puncturing of a host’s skin. The feeding membrane was placed on the top of a mosquito cage, and hot water was poured into the jar to warm the blood. After a 45-minute feed, the mosquitoes were immediately preserved at −20 °C. The blood meal size was determined for each mosquito via hemoglobinometry as previously described. Luminescence and calcium assay data were normalized and fitted with a non-linear least squares regression to generate dose-response curves, EC50 and IC50 values. Unpaired t-tests or Dunnett’s multiple comparisons test were performed accordingly to compare EC50 or IC50 values. Locomotion was measured based on the distance required for flight recovery. Data were compared with the Kruskal-Wallis and Dunnett’s multiple comparison tests after the Kolmogorov-Smirnov normality test was conducted. In the blood-feeding experiments, the percentage of blood-fed mosquitoes was calculated for each treatment group. For each biological replicate, the treatment groups were normalized with respect to the untreated group. Dunnett’s multiple comparison tests were utilized to determine statistical difference between normalized data. Size of bloodmeals were compared with an unpaired t-test or Mann-Whitney test after normality was evaluated with the Kolmogorov-Smirnov test. All analyses were performed utilizing GraphPad Prism version 7.00 for Mac OS X, GraphPad Software, La Jolla California USA, www.graphpad.com.

Ae. aegypti [3] = test: Mortality on 10% sucrose solution containing compound; format: in vivo; settings: after a three-day period
Method: The serotonergic system was manipulated to identify its role in blood-feeding behavior. To allow for the depletion of 5-HT, mosquitoes were fed a 10% sucrose solution containing varying concentrations (1, 5, 10, 25, and 60 mg/mL) of PCPA ethyl ester, a compound that […] tryptophan hydroxylase, a crucial enzyme in 5-HT synthesis. At the two highest concentrations (25 and 60 mg/mL), there was a 100% mortality rate after a three-day period. […] In comparison to the control group, which ingested an average volume of 1.87μL of blood, the average blood meal size for 1 and 5 mg/mL PCPA-treated groups was 1.84 ± 0.16 μL (p = 0.89) and 2.33 ± 0.25 μL (p = 0.12), respectively.
Sucrose solution was withheld from newly-emerged mosquitoes for two days. On the third day, the mosquitoes were presented with a cotton ball saturated with 400 μL of a 10% sucrose solution laced with compound or the respective control for five days. The cotton ball was exchanged every other day with a fresh one.

AGAP002232 [4] = target: T2, AGAP002232 (Anopheles gambiae, UniProt A0A1S4GEY1); test: Fluo-4 calcium assay in CRE-luc2P HEK-293 cells expressing AGAP002232; format: cell-based; settings: for Response to biogenic amines: 10^−4 M, AGAP002232; for Ability to inhibit activity in a dose-response manner: antagonist test, receptor not given, taken as both 5-HT2 cell lines
Method: The GloResponse™ CRE-luc2P human embryonic kidney (HEK-293) reporter cells were incubated at 37 °C with an atmosphere of 5% CO2, and maintained in Dulbecco’s Modified Eagle Medium (DMEM) supplemented with 10% fetal bovine serum (FBS) and […] hygromycin B. Transfection of the HEK-293 cells with 1 μg of plasmid DNA was performed with Amaxa Nucleofector™ technology (Lonza, Basel, Switzerland) as per manufacturer’s instructions. A week post-transfection, selective pressure was applied with […] of G418 antibiotic to generate stable lines.
1 × 10^6 cells per well were seeded into a 96-well black all-clear bottom plate and incubated overnight in 10% FBS/90% DMEM at 37 °C with an atmosphere of 5% CO2. The following day, 2X Fluo-4 Direct calcium dye (Molecular Devices LLC, San Jose, CA) was added to each well and incubated in the same conditions for 45 minutes before the assay was completed. At this time, serial dilutions of the test compounds were prepared in a 96-well clear flat bottom plate. Fluorescence levels were determined with a FlexStation3 microplate reader, with excitation and emission wavelengths set to 485 and 525 nm, respectively (Molecular Devices LLC). Basal fluorescence levels were measured for 17 seconds, at which time, 25 μl of the agonist compound was added. Fluorescence measurements continued to be recorded for a total of 120 seconds at 2-second intervals. When testing antagonists, cells were treated with the compound prior to determination of fluorescence levels.
as §1

Ae. aegypti [5] = test: Flight performance in flight cylinder after microinjection; format: in vivo, Aedes aegypti
Method: (§2) Stock solutions of the compounds were diluted to the appropriate concentrations in 1X phosphate buffer solution (PBS). To account for potential solvent effects, an ultrapure H2O control group was included in every independent experiment. Female mosquitoes were either cold- or CO2-anesthetized. A Nanoject II Auto-Nanoliter Injector (Drummond Scientific Company, Broomall, PA) was then utilized to microinject 69 nL of compound into the spiracle.
A flight cylinder was assembled as described previously. The polyacrylamide sheet was coated with Tangle-Trap Sticky Coating (The Scotts Company LLC, Marysville, OH) and allowed to sit overnight before insertion into the flight cylinder. Adult mosquitoes were anesthetized on a CO2 pad and microinjected with the compound or ultrapure H2O control. Post-injection, they were permitted to recover in a fly vial for 30 minutes before being ejected into the flight cylinder. After each trial, the distance between the top of the cylinder and the trapped mosquito was recorded. Mosquitoes captured in the fly vial at the bottom of the cylinder were considered to be incapable of flying and a distance of 91.5 cm was recorded.
as §1

AGAP002229 [6] = target: T1, AGAP002229; test: GloResponse CRE-luc2P cyclic AMP reporter (luminescence) assay, AGAP002229; format: cell-based; settings: 10^−4 M
Method: (§3) The reporter construct in the HEK-293 cells regulated the transcription of the luciferase gene in response to cAMP levels, while the Rluc-Neo^r construct in the pF9a expression plasmid served as a normalizing agent. Cells suspended in 1% FBS/99% DMEM without phenol red were seeded in white 96-well plates at a density of 6.6 × 10^5 per well, and immediately treated with varying concentrations of compounds. Following a 4-hour incubation at 37 °C with an atmosphere of 5% CO2, the cells were prepared for a Dual-Glo luciferase assay according to the manufacturer’s instructions (Promega Corporation, Madison, WI). The luminescence units were measured on the SpectraMax L 96 microplate luminometer (Molecular Devices, Sunnyvale, CA) and normalized to the cell number.

AGAP002232 [7] = target: T2, AGAP002232; test: GloResponse CRE-luc2P cyclic AMP reporter (luminescence) assay, AGAP002232; format: cell-based; settings: 10^−4 M
Method: as §3

Ae. aegypti [8] = test: Blood-feeding assay (artificial membrane feeder) after microinjection; format: in vivo, Aedes aegypti; settings: 10 mM microinjected
Method: as §2
Seven to ten-day old female mosquitoes were treated with compound or appropriate control through microinjection post cold-anesthetization or ingestion. Two mL of human O^+ blood (BioChemed Services, Winchester, VA) was utilized to cover the concave surface of an inverted baby food jar. Hog intestine sealed the opening to simulate the puncturing of a host’s skin. The feeding membrane was placed on the top of a mosquito cage, and hot water was poured into the jar to warm the blood. After a 45-minute feed, the mosquitoes were immediately preserved at −20 °C. The blood meal size was determined for each mosquito via hemoglobinometry as previously described.
as §1

5-HT7 receptors = test system: 5-HT7 receptors; parameters: method as in PMID 11282322; settings: in humans; cited from earlier work
An. gambiae = settings: cited from earlier work

T1 sequence (A7UR33 entry or part of it): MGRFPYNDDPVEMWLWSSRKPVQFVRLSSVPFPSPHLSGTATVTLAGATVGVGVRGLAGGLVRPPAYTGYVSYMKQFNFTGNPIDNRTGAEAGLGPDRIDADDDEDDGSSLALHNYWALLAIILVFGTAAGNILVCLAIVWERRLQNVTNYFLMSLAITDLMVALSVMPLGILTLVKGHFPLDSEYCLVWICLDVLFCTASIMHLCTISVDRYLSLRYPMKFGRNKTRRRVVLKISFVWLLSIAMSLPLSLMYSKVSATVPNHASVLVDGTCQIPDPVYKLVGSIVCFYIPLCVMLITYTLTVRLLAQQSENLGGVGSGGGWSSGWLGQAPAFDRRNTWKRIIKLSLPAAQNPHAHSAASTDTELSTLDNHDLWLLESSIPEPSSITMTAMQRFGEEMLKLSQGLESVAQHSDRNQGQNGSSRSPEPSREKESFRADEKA
T2 sequence (A0A1S4GEY1 entry or part of it): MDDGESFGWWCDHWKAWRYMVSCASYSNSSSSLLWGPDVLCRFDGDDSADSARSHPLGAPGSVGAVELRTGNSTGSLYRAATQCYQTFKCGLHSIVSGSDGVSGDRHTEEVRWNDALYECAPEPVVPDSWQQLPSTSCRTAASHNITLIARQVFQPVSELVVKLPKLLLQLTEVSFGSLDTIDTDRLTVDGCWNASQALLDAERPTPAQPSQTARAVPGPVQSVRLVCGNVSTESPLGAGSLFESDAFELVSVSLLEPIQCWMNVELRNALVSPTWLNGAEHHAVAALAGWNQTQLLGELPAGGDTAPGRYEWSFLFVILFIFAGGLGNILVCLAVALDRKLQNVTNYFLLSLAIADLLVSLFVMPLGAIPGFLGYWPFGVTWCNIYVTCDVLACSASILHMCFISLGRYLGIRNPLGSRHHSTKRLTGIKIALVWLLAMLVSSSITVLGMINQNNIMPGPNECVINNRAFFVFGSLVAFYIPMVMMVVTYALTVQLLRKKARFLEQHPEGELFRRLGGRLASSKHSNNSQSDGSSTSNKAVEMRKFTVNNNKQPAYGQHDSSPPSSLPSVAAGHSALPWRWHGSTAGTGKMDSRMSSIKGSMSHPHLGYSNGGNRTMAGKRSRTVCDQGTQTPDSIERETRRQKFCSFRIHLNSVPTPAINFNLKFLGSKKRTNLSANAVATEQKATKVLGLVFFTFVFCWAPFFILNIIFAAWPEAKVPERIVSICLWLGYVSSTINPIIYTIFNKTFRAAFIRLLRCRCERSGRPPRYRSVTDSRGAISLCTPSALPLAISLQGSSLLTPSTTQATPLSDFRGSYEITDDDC

With `NCCc1c[nH]c2ccccc12` [tryptamine, tryptamine hydrochloride] the EC50 (AGAP002229 [1]) was 2760 nM and the “Receptor activation by agonist” value (AGAP002229 [1]) was “able to activate”.
With `CCOC(=O)C(N)Cc1ccc(Cl)cc1.Cl` (racemic) [PCPA ethyl ester, 4-chloro-DL-chlorophenylalanine ethyl ester hydrochloride] the “Average blood meal size” value (Ae. aegypti [2]; 1 mg/mL in 10% sucrose) was 1.84 ± 0.16 µL, the “Feeding success or blood meal volume versus control” value (Ae. aegypti [2]; 1 mg/mL in 10% sucrose) was “did not demonstrate any significant difference” and the “Average blood meal size” value (Ae. aegypti [2]; 5 mg/mL in 10% sucrose) was 2.33 ± 0.25 µL. The “Feeding success or blood meal volume versus control” value (Ae. aegypti [2]; 5 mg/mL in 10% sucrose) was “did not demonstrate any significant difference”, the “Average blood meal size” value (Ae. aegypti [2]; 10 mg/mL in 10% sucrose) was 3.53 ± 0.16 µL and the “Blood feeding success rate” value (Ae. aegypti [2]; 10 mg/mL in 10% sucrose) was 73.2%. The Mortality rate (Ae. aegypti [3]; 25 mg/mL in 10% sucrose) was 100% and the Mortality rate (Ae. aegypti [3]; 60 mg/mL in 10% sucrose) was 100%.
In the case of `NCC(O)c1ccc(O)cc1` (racemic) [octopamine, (±)-octopamine hydrochloride], the “Response to biogenic amines” value (AGAP002232 [4]) is reported as “indiscernible from background levels” and the “Response to biogenic amines” value (AGAP002229 [1]) is reported as “indiscernible from background levels”.
In the case of `CN1CCN2c3ccccc3Cc3ccccc3C2C1` (stereo not shown) [mianserin, mianserin hydrochloride], the “Ability to inhibit activity in a dose-response manner” value (from here on “Ability to inhibit activity”) (AGAP002232 [4]) is reported as “only the former two exhibited the ability to inhibit activity” and the “Ability to inhibit activity” value (AGAP002229 [1]) is reported as “only the former two exhibited the ability to inhibit activity”.
For `NCCc1ccc(O)c(O)c1` [dopamine, dopamine hydrochloride], the “Response to biogenic amines” value (AGAP002232 [4]) was “indiscernible from background levels” and the “Response to biogenic amines” value (AGAP002229 [1]) was “indiscernible from background levels”.
For `NCCc1ccc(O)cc1` [tyramine, tyramine hydrochloride], the “Response to biogenic amines” value (AGAP002232 [4]) was “indiscernible from background levels” and the “Response to biogenic amines” value (AGAP002229 [1]) was “indiscernible from background levels”.
In the case of `O=C(CCCN1CCC2(CC1)C(=O)NCN2c1ccccc1)c1ccc(F)cc1` [spiperone], the “Ability to inhibit activity” value (AGAP002232 [4]) is reported as “only the former two exhibited the ability to inhibit activity” and the “Ability to inhibit activity” value (AGAP002229 [1]) is reported as “only the former two exhibited the ability to inhibit activity”.
For `COC(=O)[C@@H]1[C@H]2C[C@H]3c4[nH]c5ccccc5c4CCN3C[C@@H]2CC[C@@H]1O` [yohimbine, yohimbine hydrochloride], the “Ability to inhibit activity” value (AGAP002232 [4]) was “only the former two exhibited the ability to inhibit activity” and the “Ability to inhibit activity” value (AGAP002229 [1]) was “only the former two exhibited the ability to inhibit activity”.
With `COc1ccc2[nH]cc(CCN)c2c1` [5-MT, 5-methoxytryptamine] the EC50 (AGAP002229 [1]) was 1080 nM and the “Receptor activation by agonist” value (AGAP002229 [1]) was “able to activate”.
For `NCCc1c[nH]c2ccc(O)cc12` [5-HT, serotonin hydrochloride], the “Effect on flight compared to H2O alone” value (Ae. aegypti [5]; 10 mM) was “did not affect flight”, the “Average distance in flight cylinder” value (Ae. aegypti [5]; 10 mM, Fig. 5c) was 25.1 cm and the Ability to fly (Ae. aegypti [5]; concentrations greater than 10 mM) was “completely inhibited the mosquitoes’ ability to fly”. For the same compound, the EC50 (AGAP002232 [4]) was 1900 nM, the “Receptor response (cyclic AMP) under Gαs and Gαi/o conditions” value (AGAP002229 [6]) was “no measurable responses” and the “Receptor response (cyclic AMP) under Gαs and Gαi/o conditions” value (AGAP002232 [7]) was “no measurable responses”. The EC50 (AGAP002229 [1]) was 87.4 nM and the “Successfully blood-fed, normalized to the untreated group” value (Ae. aegypti [8]) was “approximately 80%”.
For `NCCc1c[nH]c2ccc(C(N)=O)cc12` [5-carboxamidotryptamine], the “Affinity for 5-HT7 receptors” value (5-HT7 receptors) is given as “strong affinity”.
With `NCCc1c[nH]cn1` [histamine] the “Response to biogenic amines” value (AGAP002232 [4]) was “indiscernible from background levels” and the “Response to biogenic amines” value (AGAP002229 [1]) was “indiscernible from background levels”.
In the case of `CN(C)CCCC1(c2ccc(F)cc2)OCc2cc(C#N)ccc21` (stereo not shown) [citalopram], the “Flight after microinjection into the thorax” value (An. gambiae) is given as “severe flight defects and a prolonged time for flight recovery”.
In the case of `CCCN(CCC)C1CCc2cccc(O)c2C1` (stereo not shown) [8-OH-DPAT], the “Affinity for 5-HT7 receptors” value (5-HT7 receptors) is listed as “strong affinity”.
